Measurements taken from patent US8575351B2, “Active metabolite of a thrombin receptor antagonist” (Merck Sharp & Dohme Corp., priority 2009, dated 2013).
Entries after “also recorded” stand apart in the source; their conditions may differ.

Experiments:
[1] = Blood levels in placebo-controlled safety study of SCH 530348 in non-urgent PCI subjects; assay type: in vivo, human
Source text: In a multi-center, randomized, double-blind, placebo-controlled study to evaluate the safety of SCH 530348 in subjects undergoing non-urgent percutaneous coronary intervention (“PCI”), blood samples were taken on days 15, 31, 60, 75, and 91. A steady state blood level concentration of SCH 530348 was reached by day 31. By day 31, the M20 metabolite was present in the blood at levels of 30-40% of those of the parent (SCH 530348).

[2] = Rising single dose study: LC-MS profiling of SCH 530348 metabolites in plasma and urine; assay type: in vivo, human; details: for Amount detected in urine (LC-MS): 0-24 hr urine after single 40-mg SCH 530348, humans; for Amount detected in plasma (LC-MS): first 6-hr period after single 20- or 40-mg SCH 530348, humans; for Matrix in which metabolite was detected: single oral 20 and 40 mg SCH 530348, healthy male volunteers, plasma and urine extracts
Source text: Phase I clinical studies were designed to evaluate the pharmacokinetics of SCH 530348 in healthy subjects after rising single and multiple doses. The studies included a randomized, evaluator-blind, placebo-controlled, rising single dose (“RSD”) study and a rising multiple dose (“RMD”) study of orally administered SCH 530348 in healthy subjects.
In the single-dose study, 50 healthy males were enrolled into 6 sequential cohorts and randomized to receive in ascending dose manner placebo (n=2-3/group) or oral SCH 530348 (0.25, 1, 5, 10, 20 and 40 mg; n=5-6/group). The objective of this study was to qualitatively assess SCH 530348 metabolites in selected plasma and urine samples following administration of a single oral dose (20 mg or 40 mg, Groups 5 and 6, respectively) of SCH 530348 to healthy male human subjects. Plasma samples from subjects receiving 20 mg and 40 mg of SCH 530348 or placebo were profiled using liquid chromatography-mass spectrometry (“LC-MS”). Only urine samples from 40 mg dose group were profiled. Corresponding plasma and urine LC-MS profiles from the drug- and placebo-dosed subjects were compared to distinguish the drug-derived components from the endogenous material. Next, metabolites were further characterized using liquid chromatography-tandem mass spectrometry (“LC-MS/MS”) methods. Pathways involved in metabolism of SCH 530348 in humans were proposed.
The samples were analyzed using LC-MS System B comprised of TSQ Quantum (Thermo Electron Corp., San Jose, Calif.) operating in a positive electrospray ionization mode, HPLC module Alliance 2695 (Waters, Corp., Milford, Mass.), and flow scintillation analyzer 500TR Series (PerkinElmer Life and Analytical Sciences, Inc., Boston, Mass.).
The clinical phase of the study was conducted at Pharma Bio-Research Group B.V. (Zuidlaren, The Netherlands). Selected plasma and urine samples from Group 5 (20 mg dose and placebo) and Group 6 (40 mg dose and placebo) were shipped and received frozen at Schering-Plough Research Institute (“SPRI”). The samples were stored at −20±10° C. until processing and analysis for metabolites.
Plasma samples from subjects dosed with SCH 530348 or with placebo, in the […], were pooled as summarized in the following table.
To determine extraction efficiency, all available pre-dose plasma from subjects dosed with SCH 530348 (40-mg dose group) was also pooled across subjects. A 2.0 mL aliquot of plasma was spiked with 10 μL of a system suitability mixture (“SSM”) [SCH 530348 and ^14C-SCH 530348 (combined concentration 40 ng/μL, 5000 DPM/μL), SCH 540679 (40 ng/μL), and SCH 609528 (40 ng/μL)] and processed by solvent extraction with protein precipitation. After extracting once with three volumes of acetonitrile, the supernatant was concentrated and reconstituted in dimethylsulfoxide (˜50% of final sample volume) followed by the addition of 1/1 mixture of mobile phases A and B. Following centrifugation, a sample aliquot was analyzed by liquid chromatography-mass spectrometry/flow scintillation analysis (LC-MS/FSA).
A similar procedure was used to process all plasma samples from the drug- or placebo-administered subjects (20- and 40-mg dose groups), and an aliquot of each reconstituted extract was injected for LC-MS analysis. Targeted LC-MS/MS analysis to confirm the presence of metabolites and characterize their structures was also performed.
Urine samples collected during the first 24-hr period post 40-mg dose were pooled across all SCH 530348-dosed subjects (n=5) and across placebo subjects (n=3). Five milliliters of urine (20% of available urine) were pooled from each subject.
To determine the extraction efficiency, 10% of available pre-dose urine from subjects to be dosed with SCH 530348 was also pooled across the subjects. An aliquot (ca. 3.15 mL) was spiked with 15 μL of SSM and extracted by solid-phase extraction. The urine sample was loaded onto a conditioned Sep-Pak Vac tC18 (Waters Corp.) cartridge and washed with water. […]

thrombin receptor = target: T1, thrombin receptor (Homo sapiens, UniProt P25116); experiment: Calcium transient assay (human coronary artery smooth muscle cells, TK-induced calcium efflux); assay type: cell-based
T1 construct: human coronary artery smooth muscle cell assay measuring effects on thrombin receptor agonist peptide; endogenous in cells; host or cells: human coronary artery smooth muscle cells
T1 sequence (P25116 22-425): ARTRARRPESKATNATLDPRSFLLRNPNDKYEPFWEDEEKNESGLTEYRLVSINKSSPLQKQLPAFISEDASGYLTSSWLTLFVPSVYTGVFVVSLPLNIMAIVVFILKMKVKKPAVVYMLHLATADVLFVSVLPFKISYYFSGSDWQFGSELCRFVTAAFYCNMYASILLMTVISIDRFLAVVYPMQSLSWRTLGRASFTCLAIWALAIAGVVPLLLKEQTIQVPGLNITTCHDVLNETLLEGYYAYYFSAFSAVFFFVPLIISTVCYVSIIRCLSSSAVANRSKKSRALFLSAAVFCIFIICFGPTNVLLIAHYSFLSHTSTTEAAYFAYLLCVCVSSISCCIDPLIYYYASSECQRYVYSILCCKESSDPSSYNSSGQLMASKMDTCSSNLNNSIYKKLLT
Description: Upon analysis, it was determined that, unlike the other detected metabolites, the concentration of the M20 metabolite in the blood was sufficient for it to be considered a “major metabolite.” That finding triggered an evaluation of its activity. In order to assess activity, SCH 530348 and the M20 metabolite were subjected to a human coronary artery smooth muscle cell assay measuring effects on thrombin receptor agonist peptide TFLLRNPNDK-NH2 (“TK”) on calcium efflux (“the calcium transient assay”).

[3] = Animal study, M20 exposure multiples in monkeys; assay type: in vivo; details: single dose at 0.5 mg/kg
Description: (§1) Exposure multiples exceeded 10 in monkeys after a single dose at 0.5 mg/kg, 25 in mice after a single dose at 75 mg/kg, and 50 in female rabbits on day 7 after multiple daily doses at 20 mg/kg.

[4] = Animal study, M20 exposure multiples in mice; assay type: in vivo; details: single dose at 75 mg/kg
Description: as §1

[5] = Animal study, M20 formation and exposure multiples in rabbits; assay type: in vivo
Description: as §1

SMILES | Time to steady state blood level concentration ([1]; blood samples on days 15, 31, 60, 75, 91) | Amount detected in urine (LC-MS) [2] | Amount detected in plasma (LC-MS) [2] | IC50 (thrombin receptor; agonist peptide […]-NH2 (TK)) | Matrix in which metabolite was detected [2] | Blood level as % of that of the parent (SCH 530348) ([1]; by day 31) | Exposure multiples [3] | Exposure multiples [4] | Exposure multiples ([5]; female rabbits, day 7 after multiple daily doses at 20 mg/kg) | Formation of metabolite in animals ([5]; rabbits, after both single and multiple doses) | IC50 (thrombin receptor; agonist peptide TFLLRNPNDK-NH2 (TK))
CCOC(=O)N[C@@H]1CC[C@@H]2[C@@H](C1)C[C@H]1C(=O)O[C@H](C)[C@H]1[C@H]2/C=C/c1ccc(-c2cccc(F)c2)cn1 [SCH 530348, Ethyl[(1R,3aR,4aR,6R,8aR,9S,9aS)-9-[(E)-2-[5-(3-fluorophenyl)-2-pyridinyl]ethenyl]dodecahydro-1-methyl-3-oxonaphtho[2,3-c]furan-6-yl]carbamate, reference compound] | ≤ 31 days | not detected | primary circulating component | 4.5 nM |  |  |  |  |  |  | 
C[C@H]1OC(=O)[C@@H]2C[C@@H]3C[C@H](N)CC[C@H]3[C@H](/C=C/c3ccc(-c4cccc(F)c4)cn3)[C@H]12 [Metabolite M19, (3R,3aS,4S,4aR,7R,8aR,9aR)-7-amino-4-[(E)-2-[5-(3-fluorophenyl)-2-pyridinyl]ethenyl]-decahydro-3-methylnaphtho[2,3-c]furan-1(3H)-one] |  | minor to trace levels | Trace amounts |  | Plasma,; also recorded: Urine |  |  |  |  |  | 
C[C@H]1OC(=O)[C@@H]2C[C@@H]3C[C@H](NC(=O)OCC(=O)O)CC[C@H]3[C@H](/C=C/c3ccc(-c4cccc(F)c4)cn3)[C@H]12 [Metabolite M16, [[[[(1R,3aR,4aR,6R,8aR,9S,9aS)-9-[(E)-2-[5-(3-fluorophenyl)-2-pyridinyl]ethenyl]dodecahydro-1-methyl-3-oxonaphtho[2,3-c]furan-6-yl]amino]carbonyl]oxy]acetic acid] |  | minor to trace levels |  |  | Urine |  |  |  |  |  | 
C[C@H]1OC(=O)[C@@H]2C[C@@H]3C[C@H](NC(=O)OCCO)CC[C@H]3[C@H](/C=C/c3ccc(-c4cccc(F)c4)cn3)[C@H]12 [Metabolite M20, 2-hydroxyethyl(1R,3aR,4aR,6R,9S,9aS)-9-{(E)-2(5-(3-fluorophenyl)pyridine-2-yl)vinvl}-1-methyl-3-oxododecahydronaphtho[2,3-c]furan-6ylcarbamate] |  |  | Trace amounts |  | Plasma | 30-40% | exceeded 10 | > 25 | > 50 | formed | 3.4 nM
